Common to all, as to type: biochemical
Test [1] concerns the target T1, EGFR (Homo sapiens, UniProt P00533).
T1 construct: Kinases are expressed as either kinase domains or full length constructs; made in house
The test is described as follows: Kinase inhibition assay (33P transfer), EGFR. The following applies: Table 2, kinase inhibition class; read-out: EGFR-1. The procedure, abridged: (§1)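 Steps: coat wells with poly(Glu,Tyr) 4:1 or poly(Arg,Ser) 3:1; add purified kinase, [33P]ATP and inhibitor; incubate; wash with 0.5% phosphoric acid; add liquid scintillant; count. IC50 corresponds to half-maximal reduction of bound 33P.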

Test [2] deals with T2, Lck (Homo sapiens, UniProt P06239).
T2 construct: Kinases are expressed as either kinase domains or full length constructs; made in house
The test is described as follows: Kinase inhibition assay (33P transfer), Lck. The following applies: Table 3; read-out: Lck-1. The method, boiled down: (§2)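 Each kinase, expressed as a GST- or polyHis-tagged domain or full-length protein, phosphorylated plate-attached poly(Glu,Tyr) 4:1 or poly(Arg,Ser) 3:1 using 33P-ATP. Bound radioactivity was measured by scintillation after a 0.5% phosphoric acid wash.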

The target in test [3] is T3, Tek (Homo sapiens, UniProt Q02763).
T3 construct: Kinases are expressed as either kinase domains or full length constructs; made in house
The test is described as follows: Kinase inhibition assay (33P transfer), Tek. The following applies: read-out: Tek-1. The method, boiled down: as §1

The target in test [4] is T4, Kdr (Homo sapiens, UniProt P35968).
T4 construct: Kinases are expressed as either kinase domains or full length constructs; made in house
The test is described as follows: Kinase inhibition assay (33P transfer), Kdr. The following applies: Table 3; read-out: KDR-1. The method, boiled down: as §2

Test [5] deals with T5, Zap-70 (Homo sapiens, UniProt P43403).
T5 construct: Kinases are expressed as either kinase domains or full length constructs; made in house
T5 sequence (P43403 1-619): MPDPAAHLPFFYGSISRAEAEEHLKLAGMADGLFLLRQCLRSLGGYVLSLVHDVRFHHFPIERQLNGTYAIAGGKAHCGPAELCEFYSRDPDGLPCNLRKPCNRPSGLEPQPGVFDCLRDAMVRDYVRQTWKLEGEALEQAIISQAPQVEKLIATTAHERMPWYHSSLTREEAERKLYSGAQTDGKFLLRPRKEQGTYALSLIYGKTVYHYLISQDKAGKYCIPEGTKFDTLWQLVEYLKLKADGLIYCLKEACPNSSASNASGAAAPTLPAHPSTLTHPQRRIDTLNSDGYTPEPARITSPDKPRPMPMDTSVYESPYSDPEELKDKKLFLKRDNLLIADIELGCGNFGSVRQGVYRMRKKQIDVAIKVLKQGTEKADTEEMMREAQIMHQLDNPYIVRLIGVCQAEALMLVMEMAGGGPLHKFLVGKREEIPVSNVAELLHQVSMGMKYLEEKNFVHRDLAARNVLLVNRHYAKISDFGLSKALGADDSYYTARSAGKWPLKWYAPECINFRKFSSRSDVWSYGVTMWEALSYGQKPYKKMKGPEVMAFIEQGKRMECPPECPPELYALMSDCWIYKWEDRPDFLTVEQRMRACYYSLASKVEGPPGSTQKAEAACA
The test is described as follows: Kinase inhibition assay (33P transfer), Zap-70. The following applies: Table 3; read-out: Zap-1. The procedure, abridged:
as §2

Test [6] has as its target T6, Itk (Homo sapiens, UniProt Q08881).
T6 construct: Kinases are expressed as either kinase domains or full length constructs; made in house
T6 sequence (Q08881 1-620): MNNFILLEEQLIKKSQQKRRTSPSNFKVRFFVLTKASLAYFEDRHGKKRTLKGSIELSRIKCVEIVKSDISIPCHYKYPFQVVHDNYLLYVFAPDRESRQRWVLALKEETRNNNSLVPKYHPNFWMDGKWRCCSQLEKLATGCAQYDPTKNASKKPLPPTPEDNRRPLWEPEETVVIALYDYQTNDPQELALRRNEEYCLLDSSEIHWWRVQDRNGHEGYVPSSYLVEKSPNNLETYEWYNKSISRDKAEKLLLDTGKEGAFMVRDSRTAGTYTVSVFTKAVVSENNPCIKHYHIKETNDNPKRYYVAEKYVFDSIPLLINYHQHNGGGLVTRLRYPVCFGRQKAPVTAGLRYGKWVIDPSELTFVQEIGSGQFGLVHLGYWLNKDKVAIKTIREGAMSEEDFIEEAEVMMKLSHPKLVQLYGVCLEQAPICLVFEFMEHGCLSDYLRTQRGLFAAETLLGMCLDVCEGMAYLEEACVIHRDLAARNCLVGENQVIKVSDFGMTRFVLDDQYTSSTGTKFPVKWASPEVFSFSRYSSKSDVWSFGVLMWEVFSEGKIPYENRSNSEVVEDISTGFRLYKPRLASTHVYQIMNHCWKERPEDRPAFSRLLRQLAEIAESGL
The test is described as follows: Kinase inhibition assay (33P transfer), Itk. The note with it: Table 3; read-out: Itk-1. The procedure, abridged:
as §1

Test [7] concerns the target T7, AKT (Homo sapiens, UniProt Q9Y243).
T7 construct: Kinases are expressed as either kinase domains or full length constructs; made in house
The test is described as follows: Kinase inhibition assay (33P transfer), AKT. The note with it: Table 2, kinase inhibition class; read-out: AKT3-1. The method, boiled down:
as §2

Test [8] has as its target T8, c-Met (Homo sapiens, UniProt P08581).
T8 construct: Kinases are expressed as either kinase domains or full length constructs; made in house
The test is described as follows: Kinase inhibition assay (33P transfer), c-Met. The following applies: Table 2, kinase inhibition class; read-out: Met-1. The method, boiled down:
as §1

Test [9] concerns the target T9, IGFR-1 (Homo sapiens, UniProt P08069).
T9 construct: Kinases are expressed as either kinase domains or full length constructs; made in house
The test is described as follows: Kinase inhibition assay (33P transfer), IGFR-1. The note with it: Table 2, kinase inhibition class.

Test [10] addresses T10, EPHB4 (Homo sapiens, UniProt P54760).
T10 construct: Kinases are expressed as either kinase domains or full length constructs; made in house
T10 sequence (P54760 16-987): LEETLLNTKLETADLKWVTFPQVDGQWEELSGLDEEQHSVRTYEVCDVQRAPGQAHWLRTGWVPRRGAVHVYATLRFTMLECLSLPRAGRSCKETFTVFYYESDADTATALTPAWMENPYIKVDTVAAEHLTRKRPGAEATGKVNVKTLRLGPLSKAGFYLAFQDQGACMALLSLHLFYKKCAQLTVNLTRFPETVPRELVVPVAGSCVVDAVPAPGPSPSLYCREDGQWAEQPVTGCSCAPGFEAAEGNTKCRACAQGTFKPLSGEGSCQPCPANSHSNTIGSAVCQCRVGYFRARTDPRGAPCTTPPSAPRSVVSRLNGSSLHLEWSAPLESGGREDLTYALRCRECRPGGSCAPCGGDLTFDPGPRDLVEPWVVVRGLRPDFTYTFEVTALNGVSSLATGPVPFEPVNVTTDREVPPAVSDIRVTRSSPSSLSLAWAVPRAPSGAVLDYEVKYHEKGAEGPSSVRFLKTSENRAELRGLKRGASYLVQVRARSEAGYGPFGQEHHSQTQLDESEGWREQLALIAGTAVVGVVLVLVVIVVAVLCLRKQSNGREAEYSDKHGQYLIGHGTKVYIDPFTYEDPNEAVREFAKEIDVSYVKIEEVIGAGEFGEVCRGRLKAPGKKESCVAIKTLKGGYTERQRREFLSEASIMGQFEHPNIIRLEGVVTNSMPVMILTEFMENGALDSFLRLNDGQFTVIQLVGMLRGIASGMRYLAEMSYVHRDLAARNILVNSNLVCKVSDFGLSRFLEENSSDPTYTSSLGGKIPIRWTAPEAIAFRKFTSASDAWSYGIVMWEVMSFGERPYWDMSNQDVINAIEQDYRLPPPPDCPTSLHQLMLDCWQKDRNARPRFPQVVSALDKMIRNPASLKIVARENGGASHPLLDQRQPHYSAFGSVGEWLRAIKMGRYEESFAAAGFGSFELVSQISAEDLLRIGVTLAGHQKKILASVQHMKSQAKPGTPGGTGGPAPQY
The test is described as follows: Kinase inhibition assay (33P transfer), EPHB4. The following applies: read-out: EPHB4-1.

The structures appear in SMILES notation. A value given as a limit tells only on which side of the number the result lay.

T7 sequence (Q9Y243 whole entry, the tested form may be a part): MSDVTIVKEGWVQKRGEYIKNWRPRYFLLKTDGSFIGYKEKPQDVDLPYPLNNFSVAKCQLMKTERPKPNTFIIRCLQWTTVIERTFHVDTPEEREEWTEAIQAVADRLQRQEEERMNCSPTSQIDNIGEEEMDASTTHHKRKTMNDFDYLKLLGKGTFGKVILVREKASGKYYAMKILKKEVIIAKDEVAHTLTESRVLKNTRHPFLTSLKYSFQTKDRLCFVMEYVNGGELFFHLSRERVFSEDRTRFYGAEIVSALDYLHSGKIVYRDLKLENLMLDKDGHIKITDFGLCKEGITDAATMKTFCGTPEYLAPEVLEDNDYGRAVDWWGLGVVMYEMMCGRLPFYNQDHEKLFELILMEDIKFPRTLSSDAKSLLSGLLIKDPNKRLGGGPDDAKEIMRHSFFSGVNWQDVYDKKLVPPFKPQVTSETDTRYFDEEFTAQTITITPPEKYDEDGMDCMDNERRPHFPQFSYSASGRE
T4 sequence (P35968 20-1356, species assumed): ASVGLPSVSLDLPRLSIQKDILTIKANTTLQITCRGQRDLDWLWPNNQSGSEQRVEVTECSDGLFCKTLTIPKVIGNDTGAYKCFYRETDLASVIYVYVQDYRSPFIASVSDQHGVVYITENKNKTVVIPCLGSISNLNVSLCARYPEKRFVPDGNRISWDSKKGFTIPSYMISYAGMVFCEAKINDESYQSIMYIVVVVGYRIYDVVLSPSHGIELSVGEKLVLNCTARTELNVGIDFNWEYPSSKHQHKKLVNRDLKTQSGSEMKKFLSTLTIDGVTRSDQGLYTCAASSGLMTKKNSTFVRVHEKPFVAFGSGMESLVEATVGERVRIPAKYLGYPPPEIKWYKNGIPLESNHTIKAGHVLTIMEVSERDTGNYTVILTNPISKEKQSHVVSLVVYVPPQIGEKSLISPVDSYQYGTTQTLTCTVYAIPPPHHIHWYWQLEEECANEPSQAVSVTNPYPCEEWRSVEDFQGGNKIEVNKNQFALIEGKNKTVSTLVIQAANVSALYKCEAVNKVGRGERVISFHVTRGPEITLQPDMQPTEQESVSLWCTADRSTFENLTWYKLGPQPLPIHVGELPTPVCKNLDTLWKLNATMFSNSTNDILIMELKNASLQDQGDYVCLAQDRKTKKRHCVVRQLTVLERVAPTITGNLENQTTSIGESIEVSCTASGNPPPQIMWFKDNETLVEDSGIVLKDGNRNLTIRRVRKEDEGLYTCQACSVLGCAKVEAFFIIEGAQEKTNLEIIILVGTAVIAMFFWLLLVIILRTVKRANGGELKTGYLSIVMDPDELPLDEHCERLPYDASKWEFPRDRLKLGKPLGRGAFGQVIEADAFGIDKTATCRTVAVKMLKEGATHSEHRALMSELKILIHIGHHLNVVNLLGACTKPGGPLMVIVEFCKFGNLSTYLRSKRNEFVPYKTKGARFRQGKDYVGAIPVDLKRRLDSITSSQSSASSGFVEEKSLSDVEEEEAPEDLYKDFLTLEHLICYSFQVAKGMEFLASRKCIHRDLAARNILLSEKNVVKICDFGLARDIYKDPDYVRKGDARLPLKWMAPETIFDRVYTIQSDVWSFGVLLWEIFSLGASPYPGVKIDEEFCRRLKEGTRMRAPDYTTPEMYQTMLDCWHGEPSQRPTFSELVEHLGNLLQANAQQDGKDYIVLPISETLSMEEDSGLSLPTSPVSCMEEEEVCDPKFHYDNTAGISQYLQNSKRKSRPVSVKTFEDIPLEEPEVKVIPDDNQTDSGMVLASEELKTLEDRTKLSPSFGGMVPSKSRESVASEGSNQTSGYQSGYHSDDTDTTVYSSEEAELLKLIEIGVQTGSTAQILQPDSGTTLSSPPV
T9 sequence (P08069 31-1367): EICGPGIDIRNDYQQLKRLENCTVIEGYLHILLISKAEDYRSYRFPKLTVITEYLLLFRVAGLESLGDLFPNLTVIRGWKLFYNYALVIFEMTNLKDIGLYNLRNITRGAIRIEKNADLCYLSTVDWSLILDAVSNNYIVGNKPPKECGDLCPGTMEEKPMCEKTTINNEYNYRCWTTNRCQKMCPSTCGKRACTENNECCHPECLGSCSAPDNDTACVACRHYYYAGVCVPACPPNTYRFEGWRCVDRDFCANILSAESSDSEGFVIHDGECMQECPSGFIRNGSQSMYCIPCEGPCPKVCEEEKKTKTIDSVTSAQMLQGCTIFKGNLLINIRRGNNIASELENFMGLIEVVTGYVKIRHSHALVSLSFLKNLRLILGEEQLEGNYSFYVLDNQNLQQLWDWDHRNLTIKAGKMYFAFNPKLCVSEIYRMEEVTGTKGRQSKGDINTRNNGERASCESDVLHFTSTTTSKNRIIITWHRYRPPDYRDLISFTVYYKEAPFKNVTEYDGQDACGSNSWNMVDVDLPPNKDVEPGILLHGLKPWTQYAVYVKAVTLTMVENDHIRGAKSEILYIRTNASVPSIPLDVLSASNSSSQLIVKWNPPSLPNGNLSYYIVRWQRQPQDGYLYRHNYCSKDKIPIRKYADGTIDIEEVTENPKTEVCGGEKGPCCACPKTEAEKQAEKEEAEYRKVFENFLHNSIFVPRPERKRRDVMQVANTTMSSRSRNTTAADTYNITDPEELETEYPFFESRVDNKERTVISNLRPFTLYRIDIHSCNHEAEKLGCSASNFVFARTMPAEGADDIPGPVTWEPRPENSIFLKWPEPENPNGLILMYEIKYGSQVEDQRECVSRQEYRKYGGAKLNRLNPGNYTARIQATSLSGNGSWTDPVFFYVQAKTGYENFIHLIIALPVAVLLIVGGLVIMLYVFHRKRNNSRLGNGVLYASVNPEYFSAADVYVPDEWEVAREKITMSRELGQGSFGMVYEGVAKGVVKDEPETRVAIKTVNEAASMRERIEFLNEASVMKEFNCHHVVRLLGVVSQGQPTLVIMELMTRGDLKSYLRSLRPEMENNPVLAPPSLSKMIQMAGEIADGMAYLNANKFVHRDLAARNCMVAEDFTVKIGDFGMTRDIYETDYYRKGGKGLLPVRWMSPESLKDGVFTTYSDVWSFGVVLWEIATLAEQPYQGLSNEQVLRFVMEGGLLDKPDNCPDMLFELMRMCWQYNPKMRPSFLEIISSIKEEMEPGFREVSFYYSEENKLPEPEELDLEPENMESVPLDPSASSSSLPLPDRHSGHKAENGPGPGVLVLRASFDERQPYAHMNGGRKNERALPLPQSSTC
T1 sequence (P00533 25-1210, species assumed): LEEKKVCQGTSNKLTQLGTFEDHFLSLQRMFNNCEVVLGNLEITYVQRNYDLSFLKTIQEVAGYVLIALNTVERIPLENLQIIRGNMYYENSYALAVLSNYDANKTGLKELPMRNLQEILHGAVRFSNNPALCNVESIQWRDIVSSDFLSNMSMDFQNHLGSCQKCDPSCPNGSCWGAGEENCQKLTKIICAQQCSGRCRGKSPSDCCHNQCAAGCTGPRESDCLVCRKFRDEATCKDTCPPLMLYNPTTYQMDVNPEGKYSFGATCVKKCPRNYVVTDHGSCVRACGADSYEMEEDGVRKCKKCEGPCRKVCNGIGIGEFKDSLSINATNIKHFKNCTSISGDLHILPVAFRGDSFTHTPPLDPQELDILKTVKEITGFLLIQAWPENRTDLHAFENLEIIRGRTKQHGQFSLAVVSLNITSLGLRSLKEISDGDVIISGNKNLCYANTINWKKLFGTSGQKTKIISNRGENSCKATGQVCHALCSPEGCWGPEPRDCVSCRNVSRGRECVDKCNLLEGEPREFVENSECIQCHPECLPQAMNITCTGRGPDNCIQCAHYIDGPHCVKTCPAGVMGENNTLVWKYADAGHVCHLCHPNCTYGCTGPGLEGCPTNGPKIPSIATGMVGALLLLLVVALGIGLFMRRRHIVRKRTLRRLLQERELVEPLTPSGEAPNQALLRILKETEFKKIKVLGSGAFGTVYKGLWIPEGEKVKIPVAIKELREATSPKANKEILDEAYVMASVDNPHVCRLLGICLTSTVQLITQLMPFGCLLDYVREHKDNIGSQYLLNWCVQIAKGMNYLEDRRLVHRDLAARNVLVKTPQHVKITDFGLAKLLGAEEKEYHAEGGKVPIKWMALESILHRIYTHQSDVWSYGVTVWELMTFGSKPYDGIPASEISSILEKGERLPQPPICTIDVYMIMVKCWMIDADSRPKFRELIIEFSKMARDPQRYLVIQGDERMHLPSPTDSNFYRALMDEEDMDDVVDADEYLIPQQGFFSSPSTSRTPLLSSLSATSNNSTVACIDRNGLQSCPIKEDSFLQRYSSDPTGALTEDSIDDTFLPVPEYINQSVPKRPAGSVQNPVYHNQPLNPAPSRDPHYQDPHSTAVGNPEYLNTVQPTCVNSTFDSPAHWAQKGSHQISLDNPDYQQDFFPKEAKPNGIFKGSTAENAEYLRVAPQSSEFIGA
T2 sequence (P06239 whole entry, species assumed, the tested form may be a part): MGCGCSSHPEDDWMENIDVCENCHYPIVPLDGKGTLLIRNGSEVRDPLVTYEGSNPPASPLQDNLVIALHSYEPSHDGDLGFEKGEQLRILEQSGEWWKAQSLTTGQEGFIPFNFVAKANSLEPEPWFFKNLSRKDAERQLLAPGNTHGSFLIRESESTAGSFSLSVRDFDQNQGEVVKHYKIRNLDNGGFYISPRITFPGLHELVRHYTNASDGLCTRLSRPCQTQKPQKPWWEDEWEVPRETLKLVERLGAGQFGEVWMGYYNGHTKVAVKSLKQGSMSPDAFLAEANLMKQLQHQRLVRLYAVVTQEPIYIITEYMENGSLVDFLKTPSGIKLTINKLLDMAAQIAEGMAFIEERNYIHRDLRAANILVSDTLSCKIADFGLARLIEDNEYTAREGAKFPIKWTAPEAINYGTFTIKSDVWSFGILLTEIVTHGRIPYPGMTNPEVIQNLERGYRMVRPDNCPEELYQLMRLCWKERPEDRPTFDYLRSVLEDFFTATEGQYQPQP

In the case of `COc1ccc(CNc2ncnc(Nc3cc(OC)c(OC)c(OC)c3)n2)cc1` [Compound 80], the IC50 in test [1], in test [2], in test [3], in test [4], in test [5] and in [6] was more than 11.3 µM throughout. Besides, the IC50 in test [7], in test [8], in test [9] and in test [10] was more than 11.3 µM throughout.

On to `COc1cc(Nc2ncnc(Nc3ccc(N(C)C(C)=O)cc3)n2)cc(OC)c1OC` [Compound 81], for which the IC50 in test [1] is more than 10.6 µM; in test [2], 0.942 to 5.65 µM; in test [3] it was more than 10.6 µM; in test [4] it was 0.942 to 5.65 µM; in test [5], more than 10.6 µM; in test [6], more than 10.6 µM. The IC50 in test [7], in [8], in test [9] and in [10] was more than 10.6 µM throughout.

For the compound `COc1cc(Nc2ncnc(Nc3ccc(NCc4ccccc4)cc3)n2)cc(OC)c1OC` [Compound 93], the IC50 in [1], in test [2], in test [3], in [4], in test [5] and in test [6] was more than 9.81 µM throughout. In addition, the IC50 in test [7], in [8], in [9] and in [10] was more than 9.81 µM in each case.

Turning to `COc1cc(Nc2ncnc(Nc3ccc(-c4ccccc4)cc3)n2)cc(OC)c1OC` [Compound 100], the IC50 in test [1] was 8.15 to 10.5 µM; in [2] it was more than 10.5 µM; in [3], more than 10.5 µM; in test [4], 0.931 to 5.59 µM; in [5], 0.931 to 5.59 µM; in test [6] it was more than 10.5 µM. The IC50 was 5.59 to 8.15 µM in [7], more than 10.5 µM in test [8], 5.59 to 8.15 µM in [9] and 0.931 to 5.59 µM in test [10].

Take `COc1cc(Nc2ncnc(NN3CCOCC3)n2)cc(OC)c1OC` [Compound 103]: the IC50 in [1], in test [2], in test [3], in [4], in test [5] and in test [6] was more than 12.4 µM each time. The IC50 in test [7] is 1.1 to 6.62 µM; in test [8] it was more than 12.4 µM; in [9], 6.62 to 9.66 µM; in test [10], 1.1 to 6.62 µM.

Consider `COc1cc(Nc2ncnc(Nc3cccc(Oc4ccccc4)c3)n2)cc(OC)c1OC` [Compound 105], for which the IC50 was 0.898 to 5.39 µM in [1]; more than 10.1 µM in [2]; more than 10.1 µM in test [3]; 0.898 to 5.39 µM in test [4]; more than 10.1 µM in test [5]; more than 10.1 µM in [6]. Besides, the IC50 was more than 10.1 µM in test [7], 0.898 to 5.39 µM in test [8], more than 10.1 µM in test [9] and more than 10.1 µM in test [10].

Consider `COc1ccc(Nc2ncnc(Nc3ccc(F)c(Cl)c3)n2)cc1OC` [Compound 113], for which the IC50 in test [1] is 1.06 to 6.39 µM; in [2], more than 12 µM; in [3], more than 12 µM; in test [4], more than 12 µM; in test [5], more than 12 µM; in test [6], more than 12 µM. The IC50 was more than 12 µM in test [7], more than 12 µM in [8], less than 1.06 µM in test [9] and 6.39 to 9.31 µM in test [10].

Turning to `COc1ccc(Nc2ncnc(Nc3ccc(Br)cc3F)n2)cc1OC` [Compound 117], the IC50 is 5.71 to 8.33 µM in test [1]; 5.71 to 8.33 µM in test [2]; more than 10.7 µM in test [3]; 0.952 to 5.71 µM in test [4]; 8.33 to 10.7 µM in [5]; more than 10.7 µM in [6]. Further, the IC50 is 5.71 to 8.33 µM in [7], 8.33 to 10.7 µM in test [8], more than 10.7 µM in test [9] and 8.33 to 10.7 µM in test [10].

Take `c1ccc(-c2ncnc(Nc3ccc(OCCCN4CCOCC4)cc3)n2)cc1` [Compound 154]: the IC50 was more than 11.5 µM in test [1]; more than 11.5 µM in [2]; more than 11.5 µM in test [3]; 1.02 to 6.13 µM in [4]; more than 11.5 µM in test [5]; more than 11.5 µM in test [6]. In addition, the IC50 is more than 11.5 µM in test [7], more than 11.5 µM in [8], 1.02 to 6.13 µM in test [9] and 8.94 to 11.5 µM in test [10].

For `COCCOc1ccc(Nc2ncnc(-c3ccccc3)n2)cc1` [Compound 155], the IC50 in test [1], in test [2], in test [3], in test [4], in test [5] and in test [6] was more than 14 µM in each case. For the same compound, the IC50 in [7], in test [8], in test [9] and in [10] was more than 14 µM each time.

`Oc1ccc(Nc2ncnc(Nc3ccc(OCc4ccccc4)cc3)n2)cc1` [Compound 158]: the IC50 is 1.04 to 6.23 µM in test [1]; 9.08 to 11.7 µM in test [2]; 6.23 to 9.08 µM in test [3]; 1.04 to 6.23 µM in test [4]; 1.04 to 6.23 µM in [5]; more than 11.7 µM in test [6]. Further, the IC50 in [7] lay within 1.04 to 6.23 µM; in [8], 1.04 to 6.23 µM; in [9] it was 6.23 to 9.08 µM; in test [10] it was 1.04 to 6.23 µM.

The record behind these values is patent US7074789B2, “Kinase inhibitors” (Amgen Inc., priority 1999, dated 2006).
